Laboratory results taken from PMC3764026, “Adaptive Evolution of Escherichia coli to an α-Peptide/β-Peptoid Peptidomimetic Induces Stable Resistance” (PLoS ONE, 2013).
≈ marks a conversion by molar mass, not a printed value. Read-outs that look alike come from different tables or passages of the source. Positions of bridges follow the written chain, without caps; N, C: chain ends. Non-standard residues stand in square brackets, D forms with d. Residues, ends and D or L forms follow the SMILES beside them. *: point of attachment. X1 = CC[C@H](C)CCCCC(=O)*; Dab = NCC[C@H](N)C(=O)O

Columns and labels:
[1] = tested on: isolates from peptidomimetic 1-exposed E. coli ATCC 25922 lineages; settings: for cross-resistance: MIC as compared to the wild type: all twenty isolates from lineages no. 2 and 5, KR-12, IsCTp, melittin, PEP-1-K in 1% peptone instead of MHB; for MIC: two biological replicates; for change in MIC following acquisition of peptidomimetic resistance: isolate 2–7 vs wild type, biological duplicates
Protocol: (§1) Continuous selection of resistance was performed for peptidomimetic 1 (Figure 1) and for the clinically relevant natural antimicrobial peptide, polymyxin B. A bacterial suspension of a single colony of E. coli ATCC 25922 was re-inoculated (10 µl) five times in unsupplemented MHB (990 µl). It was then re-inoculated in MHB supplemented with peptidomimetic 1 (ten lineages) or polymyxin B (ten lineages), and after ten re-inoculations at constant peptidomimetic or polymyxin B concentration, the concentrations were doubled. […] Four lineages grown in MHB with MilliQ water were included as control. Re-inoculations were performed twice a day, but were reduced to once a day when growth was slower as assessed by turbidity of the cultures. The total number of passages (supplemented with peptidomimetic/AMP) was 77 times equivalent to approx. 500 generations. For each increase in concentration the lineages were preserved as freezing stocks. Ten colony isolates were randomly selected from each lineage population at 32×MIC and preserved as freezing stocks.
MIC was determined by using the micro-dilution method according to guidelines of the Clinical and Laboratory Standards Institute. Peptidomimetic 1 and erythromycin 1∶2 serial dilutions were prepared from 1024 µg/mL stock solutions to give a final range of 512-0.5 µg/mL in the wells. Ampicillin 1∶2 serial dilutions were prepared from a 256 µg/mL stock solution to give a final range of 128-0.13 µg/mL in the wells. Polymyxin B and gentamicin 1∶2 serial dilutions were prepared from a 64 µg/mL stock solution to give a final range of 32-0.03 µg/mL in the wells.
The population lineages were tested for their susceptibility towards peptidomimetic 1, polymyxin B, gentamicin and ampicillin. Single-culture isolates selected from these populations were additionally tested against peptidomimetic 1, polymyxin B, erythromycin and the five reference AMPs. To estimate the level of cross-resistance to closely related peptidomimetics, MIC determinations were performed for peptidomimetics 2 and 3 (Figure 1) towards selected isolates. The bacterial suspensions were grown overnight in MHB at 37°C for determination of the population MIC, or individual isolates were grown overnight on non-selective BHI agar at 37°C. […] In all experiments, bacterial cells were suspended in 0.9% saline to give a turbidity of 0.13 at OD546 (approximately 1×10^8 CFU/mL) and diluted in MHB pH 7.4 to a final concentration of 5×10^5 CFU/mL in each well. Polypropylene plates (Nunc 442587) were used to minimize peptide binding, and the incubation time was 18–20 hours at 37°C. […] MIC was found in a minimum of two technical (population MIC) or biological (isolate MIC) replicates as the lowest concentration of the AMP or antibiotic where no visible growth was observed.

[2] = tested on: E. coli ATCC 25922 control lineages; format: cell-based, Escherichia coli; settings: two technical duplicates
Protocol: as §1
(§2) MIC was determined by using the micro-dilution method according to guidelines of the Clinical and Laboratory Standards Institute. Peptidomimetic 1 and erythromycin 1∶2 serial dilutions were prepared from 1024 µg/mL stock solutions to give a final range of 512-0.5 µg/mL in the wells. Ampicillin 1∶2 serial dilutions were prepared from a 256 µg/mL stock solution to give a final range of 128-0.13 µg/mL in the wells. Polymyxin B and gentamicin 1∶2 serial dilutions were prepared from a 64 µg/mL stock solution to give a final range of 32-0.03 µg/mL in the wells. Also, 1∶2 serial dilutions of the AMPs KR-12, IsCTp, melittin and PEP-1-K were prepared from 64 µg/mL stock solutions to give a final range of 32-0.03 µg/mL in the wells; however this was performed in 1% peptone instead of in MHB since activity was drastically diminished in the latter (not shown).
(§3) The population lineages were tested for their susceptibility towards peptidomimetic 1, polymyxin B, gentamicin and ampicillin. Single-culture isolates selected from these populations were additionally tested against peptidomimetic 1, polymyxin B, erythromycin and the five reference AMPs. To estimate the level of cross-resistance to closely related peptidomimetics, MIC determinations were performed for peptidomimetics 2 and 3 (Figure 1) towards selected isolates. The bacterial suspensions were grown overnight in MHB at 37°C for determination of the population MIC, or individual isolates were grown overnight on non-selective BHI agar at 37°C. […] In all experiments, bacterial cells were suspended in 0.9% saline to give a turbidity of 0.13 at OD546 (approximately 1×10^8 CFU/mL) and diluted in MHB pH 7.4 to a final concentration of 5×10^5 CFU/mL in each well. Polypropylene plates (Nunc 442587) were used to minimize peptide binding, and the incubation time was 18–20 hours at 37°C. Incubation time was additionally extended up to 44 hours for the individual isolates due to a potential effect of growth rate on the outcome, but no effect was seen of this (not shown). MIC was found in a minimum of two technical (population MIC) or biological (isolate MIC) replicates as the lowest concentration of the AMP or antibiotic where no visible growth was observed.
(§4) Frozen stocks were reconditioned in unsupplemented MHB media for five transfers (∼35 generations) at 37°C. The heritability of resistance was established through MIC determination of bacterial populations as described above.

[3] = tested on: E. coli ATCC 25922 lineages adapted to peptidomimetic 1; format: cell-based, Escherichia coli; settings: for cross-resistance to conventional antibiotics: any of the lineages (peptidomimetic- and polymyxin B-exposed), population MIC, data not shown
Protocol: as §1, §2, §3, §4

[4] = tested on: E. coli ATCC 25922 lineages adapted to polymyxin B; format: cell-based, Escherichia coli; settings: for MIC against polymyxin after 35 generations w/o selection / MIC against polymyxin after selection: two technical duplicates; for MIC against polymyxin after selection: MHB pH 7.4, 37°C, 18–20 h
Protocol: as §1, §2, §3, §4

[5] = tested on: Escherichia coli ATCC 25922; assay: Continuous selection experiment; format: cell-based
Protocol: as §1

[6] = tested on: Escherichia coli ATCC 25922; format: cell-based; settings: wild-type E. coli ATCC 25922; MHB pH 7.4, 5×10^5 CFU/mL, 37°C, 18–20 h
Protocol: All experiments were performed with Escherichia coli ATCC 25922. Stock cultures of the wild-type strain and lineage isolates were stored at –80°C in 4% (w/v) glycerol, 0.5% (w/v) glucose, 2% (w/v) skimmed milk powder and 3% (w/v) tryptone soy powder. Lineage populations were frozen at –80°C in 50% (w/v) glycerol. All experiments were performed at 37°C. Experiments were carried out in cation-adjusted Mueller Hinton II broth (MHB) (Becton Dickinson 212322) adjusted to pH 7.4 or in 1% (w/v) peptone (Becton Dickinson 211677) for MIC determination of natural AMPs. Brain Heart Infusion (BHI) (CM1135) with agar (VWR 20768.292) 1.5% as gelling agent was used throughout for colony plating.
as §2
The population lineages were tested for their susceptibility towards peptidomimetic 1, polymyxin B, gentamicin and ampicillin. Single-culture isolates selected from these populations were additionally tested against peptidomimetic 1, polymyxin B, erythromycin and the five reference AMPs. To estimate the level of cross-resistance to closely related peptidomimetics, MIC determinations were performed for peptidomimetics 2 and 3 (Figure 1) towards selected isolates. […]

CC[C@H]1OC(=O)[C@H](C)[C@@H](O[C@H]2C[C@@](C)(OC)[C@@H](O)[C@H](C)O2)[C@H](C)[C@@H](O[C@@H]2O[C@H](C)C[C@H](N(C)C)[C@H]2O)[C@](C)(O)C[C@@H](C)C(=O)[C@H](C)[C@@H](O)[C@]1(C)O [erythromycin, reference compound]
change in susceptibility as compared to the wild type ([1]; the five highly resistant isolates of lineage no. 2 carrying the macrolide transporter mutation, not shown): No change

CC[C@H](C)CCCCC(=O)N[C@@H](CCN)C(=O)N[C@H](C(=O)N[C@@H](CCN)C(=O)N[C@H]1CCNC(=O)[C@H]([C@@H](C)O)NC(=O)[C@H](CCN)NC(=O)[C@H](CCN)NC(=O)[C@H](CC(C)C)NC(=O)[C@@H](Cc2ccccc2)NC(=O)[C@H](CCN)NC1=O)[C@@H](C)O [polymyxin B, Polymyxin B] (X1-[Dab]T[Dab][Dab][Dab][dF]L[Dab][Dab]T; lactam 4-C (inferred); N-terminus assumed)
MIC against polymyxin after 35 generations w/o selection ([2]; Control 1 lineage (MilliQ water)): 0.5 µg/mL (≈ 0.415 µM) | MIC against polymyxin after selection ([2]; Control 1 lineage (MilliQ water, no polymyxin)): 8 µg/mL (≈ 6.65 µM) | MIC against polymyxin after 35 generations w/o selection ([2]; Control 2 lineage (MilliQ water)): 0.5 to 1 µg/mL | MIC against polymyxin after selection ([2]; Control 2 lineage (MilliQ water, no polymyxin)): 1 µg/mL (≈ 0.831 µM) | cross-resistance after removal of the selection pressure ([3]; peptidomimetic-exposed lineages, ~35 generations unsupplemented, became similar to controls, not shown): lost | MIC against polymyxin after 35 generations w/o selection ([4]; polymyxin B-exposed lineage 2, five passages in unsupplemented MHB): 32 µg/mL (≈ 26.6 µM) | MIC against polymyxin after selection ([4]; polymyxin B-exposed lineage 2, population outgrown at 32×wt MIC): 32 µg/mL (≈ 26.6 µM) | MIC against polymyxin after 35 generations w/o selection ([4]; polymyxin B-exposed lineage 3, five passages in unsupplemented MHB): 32 µg/mL (≈ 26.6 µM) | MIC against polymyxin after selection ([4]; polymyxin B-exposed lineage 3, population outgrown at 32×wt MIC): 32 µg/mL (≈ 26.6 µM) | MIC against polymyxin after 35 generations w/o selection ([4]; polymyxin B-exposed lineage 4, five passages in unsupplemented MHB): 32 µg/mL (≈ 26.6 µM) | MIC against polymyxin after selection ([4]; polymyxin B-exposed lineage 4, population outgrown at 32×wt MIC): 32 µg/mL (≈ 26.6 µM) | MIC against polymyxin after 35 generations w/o selection ([4]; polymyxin B-exposed lineage 5, five passages in unsupplemented MHB): 32 µg/mL (≈ 26.6 µM) | MIC against polymyxin after selection ([4]; polymyxin B-exposed lineage 5, population outgrown at 32×wt MIC): 32 µg/mL (≈ 26.6 µM) | MIC against polymyxin after 35 generations w/o selection ([4]; polymyxin B-exposed lineage 6, five passages in unsupplemented MHB): 32 µg/mL (≈ 26.6 µM) | MIC against polymyxin after selection ([4]; polymyxin B-exposed lineage 6, population outgrown at 32×wt MIC): 32 µg/mL (≈ 26.6 µM) | MIC against polymyxin after 35 generations w/o selection ([4]; polymyxin B-exposed lineage 8, five passages in unsupplemented MHB): 32 µg/mL (≈ 26.6 µM) | MIC against polymyxin after selection ([4]; polymyxin B-exposed lineage 8, population outgrown at 32×wt MIC): 32 µg/mL (≈ 26.6 µM) | MIC against polymyxin after 35 generations w/o selection ([4]; polymyxin B-exposed lineage 9, five passages in unsupplemented MHB): 32 µg/mL (≈ 26.6 µM) | MIC against polymyxin after selection ([4]; polymyxin B-exposed lineage 9, population outgrown at 32×wt MIC): 32 µg/mL (≈ 26.6 µM) | MIC against polymyxin after 35 generations w/o selection ([4]; polymyxin B-exposed lineage 10, five passages in unsupplemented MHB): 32 µg/mL (≈ 26.6 µM) | MIC against polymyxin after selection ([4]; polymyxin B-exposed lineage 10, population outgrown at 32×wt MIC): 32 µg/mL (≈ 26.6 µM) | increase in MIC as compared to the wild-type strain ([4]; the eight polymyxin B-exposed lineages after selection): 32 fold | cross-resistance: MIC as compared to the wild type ([1]; not shown): did not find increased MIC values | lineages that eventually grew at 32×wt MIC ([5]; ten lineages per agent, from 1/16×wt MIC, doubled stepwise, 77 inoculations, approx. 500 generations, 32×wt MIC = 256 µg/mL peptidomimetic 1, 32 µg/mL polymyxin B): eight out of ten | growth of unexposed control lineages at 4×wt MIC ([5]; two controls per agent, 32 µg/mL peptidomimetic 1 or 4 µg/mL polymyxin B): one of the two controls

melittin [melitin, reference compound]
cross-resistance: MIC as compared to the wild type ([1]; not shown): did not find increased MIC values

CC(=O)N[C@@H](CCCCN)C(=O)N(CCC(=O)N[C@@H](CCCCN)C(=O)N(CCC(=O)N[C@@H](CCCCN)C(=O)N(CCC(=O)N[C@@H](CCCCN)C(=O)N(CCC(=O)N[C@@H](CCCCN)C(=O)N(CCC(=O)N[C@@H](CCCCN)C(=O)N(CCC(=O)N[C@@H](CCCCN)C(=O)N(CCC(=O)N[C@@H](CCCCN)C(=O)N(CCC(N)=O)[C@@H](C)c1ccccc1)[C@@H](C)c1ccccc1)[C@@H](C)c1ccccc1)[C@@H](C)c1ccccc1)[C@@H](C)c1ccccc1)[C@@H](C)c1ccccc1)[C@@H](C)c1ccccc1)[C@@H](C)c1ccccc1 [peptidomimetic 2]
wt MIC [6]: 64 µg/mL | MIC ([1]; isolates 2–4 and 2–6 (shared values), mean when results varied): 512 µg/mL (≈ 206 µM) | MIC ([1]; isolates 2–7, 2–9 and 2–10 (shared values), mean when results varied): 512 µg/mL (≈ 206 µM) | MIC ([1]; six of the ten isolates from lineage no. 5 (data point shared with wild type)): 64 µg/mL (≈ 25.7 µM)

CC1(C)S[C@@H]2[C@H](NC(=O)[C@H](N)c3ccccc3)C(=O)N2[C@H]1C(=O)O [ampicillin, reference compound]
cross-resistance to conventional antibiotics [3]: No cross-resistance

OO [hydrogen peroxide, reference compound]
change in MIC following acquisition of peptidomimetic resistance [1]: No changes

protamine [reference compound]
cross-resistance: MIC as compared to the wild type ([1]; not shown): did not find increased MIC values

CNC(C)C1CCC(N)C(OC2C(N)CC(N)C(OC3OCC(C)(O)C(NC)C3O)C2O)O1 (stereo not drawn) [gentamicin, reference compound]
cross-resistance to conventional antibiotics [3]: No cross-resistance

lysozyme
change in MIC following acquisition of peptidomimetic resistance [1]: No changes
